{
  "source": "patent US4839374A",
  "about": "“4-((Bicyclic heterocyclyl)-methyl and -hetero)-piperidines” (Janssen Pharmaceutica, N.V., priority 1987, dated 1989)",
  "data": [
    {"tested_on": "compound 48/80-induced lethality", "assay": "Protection of rats from compound 48/80-induced lethality", "format": "in vivo, rats of an inbred Wistar strain", "conditions": "Rattus norvegicus, 4 h, read-out: Compound 48/80 lethality test in rats ED50, s.c. or p.o. 1 h before compound 48/80 0.5 mg/kg i.v.; protection of 50% of animals, survival after 4 hours", "method": "Protection of rats from compound 48/80-induced lethality\nThe protection from compound 48/80-induced lethal circulatory collapse appears to be a simple way of evaluating quantitatively the antihistaminic activity of test compounds. Male rats of an inbred Wistar strain, weighing 240-260 g were used in the experiment. After overnight starvation the rats were transferred to conditioned laboratories (temp.=21±1° C., relative humidity=65+5%). The rats were treated subcutaneously or orally with a test compound or with the solvent (NaCl solution, 0.9%). […] Survival after 4 hours is therefore considered to be a safe criterion of a protective effect of drug administration. The ED50 -values of the compounds of formula (I) are listed in the first column of tables 1 to 4. Said ED50 -values are the values in mg/kg body weight at which the tested compounds protect 50% of the tested animals against compound 48/80-induced lethality. The compounds of formula (I) and the pharmaceutically acceptable acid addition salts thereof are also potent serotonin-antagonists. The potency of the subject compounds as serotonin-antagonists is clearly evidenced by the results obtained in the following tests wherein the antagonistic activity of the subject compounds on the effect of serotonin is examined.", "units": {"ED50": "mg/kg"}, "values": [
      {"molecule": "COc1ccc(CCN2CCC(Cc3nc4ccccc4n3Cc3cccs3)CC2)cc1", "note": "[Compound 232]", "ED50": 0.08},
      {"molecule": "CN1CCC(Oc2nc3ccccc3n2Cc2ccc(F)cc2)CC1", "note": "[Compound 85]", "ED50": 0.01},
      {"molecule": "O=c1[nH]c2ccccc2c(=O)n1CCCN1CCC(Cc2nc3cccnc3n2Cc2ccco2)CC1", "note": "[Compound 169]", "ED50": 0.02},
      {"molecule": "CCOC(=O)NCCN1CCC(Cc2nc3ccccc3n2Cc2cscn2)CC1", "note": "[Compound 248]", "ED50": 0.04},
      {"molecule": "Cn1cnc2c(NCCN3CCC(Cc4nc5ccccc5n4Cc4ccc(F)cc4)CC3)ncnc21", "note": "[Compound 369]", "ED50": 0.04},
      {"molecule": "O=c1oc2ccccc2cc1CCN1CCC(Cc2nc3ccccc3n2Cc2cccs2)CC1", "note": "[Compound 259]", "ED50": 0.08},
      {"molecule": "COc1ccc(CCN2CCC(Cc3nc4ccccc4n3CCc3ccccc3)CC2)cc1", "note": "[Compound 516, 2-[[1-[2-(4-methoxyphenyl)ethyl]-4-piperidinyl]methyl]-1-(2-phenylethyl)-1H-benzimidazole]", "ED50": 0.16},
      {"molecule": "Fc1ccc(Cn2c(CC3CCN(CCNc4ccncn4)CC3)nc3ccccc32)cc1", "note": "[Compound 501]", "ED50": 0.04},
      {"molecule": "Cc1nc2ccccn2c(=O)c1CCN1CCC(Cc2nc3ccncc3n2Cc2ccc(F)cc2)CC1", "note": "[Compound 270]", "ED50": 0.08},
      {"molecule": "CCn1nnnc1SCCN1CCC(Cc2nc3ccccc3n2Cc2ccc(F)cc2)CC1", "note": "[Compound 181]", "ED50": 0.04},
      {"molecule": "CN(CCN1CCC(Cc2nc3ccccc3n2Cc2ccc(F)cc2)CC1)Cc1ccccc1", "note": "[Compound 512]", "ED50": 0.08},
      {"molecule": "Fc1ccc(Cn2c(OC3CCN(CCNc4nccs4)CC3)nc3ccccc32)cc1", "note": "[Compound 355]", "ED50": 0.08},
      {"molecule": "Fc1ccc(Cn2c(CC3CCN(CCNc4ncnc5[nH]cnc45)CC3)nc3ccccc32)cc1", "note": "[Compound 370]", "ED50": 0.02},
      {"molecule": "Cc1nc2ccccn2c(=O)c1CCN1CCC(Cc2nc3cccnc3n2Cc2ccccn2)CC1", "note": "[Compound 256]", "ED50": 0.08},
      {"molecule": "O=c1[nH]c2ccccc2n1CCCN1CCC(Cc2nc3cccnc3n2Cc2ccco2)CC1", "note": "[Compound 152]", "ED50": 0.04},
      {"molecule": "COc1ccc(CCN2CCC(Cc3nc4ccccc4n3Cc3ccc(C)o3)CC2)cc1", "note": "[Compound 266]", "ED50": 0.04},
      {"molecule": "Cc1nc2n(c(=O)c1CCN1CCC(Cc3nc4cccnc4n3Cc3ccco3)CC1)CCCS2", "note": "[Compound 178]", "ED50": 0.02},
      {"molecule": "O=C(Cc1ccsc1)NCCN1CCC(Cc2nc3ccccc3n2Cc2ccc(F)cc2)CC1", "note": "[Compound 440, N-[2-[4-[[1-[(4-fluorophenyl)methyl]-1H-benzimidazol-2-yl]methyl]-1-piperidinyl]ethyl]-3-thiopheneacetamide]", "ED50": 0.02},
      {"molecule": "c1cnc(NCCN2CCC(Cc3nc4ccccc4n3Cc3cscn3)CC2)nc1", "note": "[Compound 338]", "ED50": 0.02},
      {"molecule": "OCCN1CCC(Cc2nc3cccnc3n2Cc2ccc(F)cc2)CC1", "note": "[Compound 115, 4-[[3-[(4-fluorophenyl)methyl]-3H-imidazo[4,5-b]pyridin-2-yl]methyl]-1-piperidineethanol]", "ED50": 0.16},
      {"molecule": "COc1ccc(CCN2CC[C@@H](Oc3nc4ccccc4n3Cc3ccc(F)cc3)[C@H](C)C2)cc1", "note": "(relative stereo) [Compound 268]", "ED50": 0.16},
      {"molecule": "Fc1ccc(Cn2c(CC3CCN(C4CCCCC4)CC3)nc3cccnc32)cc1", "note": "[Compound 98]", "ED50": 0.04},
      {"molecule": "Nc1ccccc1C(=O)NCCN1CCC(Oc2nc3ccccc3n2Cc2ccc(F)cc2)CC1", "note": "[Compound 480, 2-amino-N-[2-[4-[[1-[(4-fluorophenyl)methyl]-1H-benzimidazol-2-yl]oxy]-1-piperidinyl]ethyl]benzamide]", "ED50": 0.02},
      {"molecule": "c1ccc(Cn2c(CC3CCN(CCNc4ncccn4)CC3)nc3cccnc32)nc1", "note": "[Compound 340]", "ED50": 0.08},
      {"molecule": "O=S(=O)(CCN1CCC(Cc2nc3ccccc3n2Cc2ccc(F)cc2)CC1)c1ccccc1", "note": "[Compound 130]", "ED50": 0.16},
      {"molecule": "Fc1ccc(Cn2c(CC3CCNCC3)nc3ncccc32)cc1", "note": "[Compound 48, 1-[(4-fluorophenyl)methyl]-2-(4-piperidinylmethyl)-1H-imidazo[4,5-b]-pyridine]", "ED50": 0.16},
      {"molecule": "Cc1ccc(Cn2c(CC3CCN(CCO)CC3)nc3ccccc32)cc1", "note": "[Compound 113, 4-[[1-[(4-methylphenyl)methyl]-1H-benzimidazol-2-yl]methyl]-1-piperidineethanol]", "ED50": 0.08},
      {"molecule": "Cc1nc(CCN2CCC(Cc3nc4ccccc4n3Cc3ccc(F)cc3)CC2)cs1", "note": "[Compound 459, 1-[(4-fluorophenyl)methyl]-2-[[1-[2-(2-methyl-4-thiazolyl)ethyl]-4-piperidinyl]methyl]-1H-benzimidazole]", "ED50": 0.02},
      {"molecule": "Fc1ccc(Cn2c(CC3CCNCC3)nc3cccnc32)cc1", "note": "[Compound 45, 3-[(4-fluorophenyl)methyl]-2-(4-piperidinylmethyl)-3H-imidazo[4,5-b]-pyridine]", "ED50": 0.04},
      {"molecule": "COc1ccc(CCN2CCC(Cc3nc4ccccc4n3Cc3cnccn3)CC2)cc1", "note": "[Compound 524, 2-[[1-[2-(4-methoxyphenyl)ethyl]-4-piperidinyl]methyl]-1-(2-pyrazinylmethyl)-1H-benzimidazole]", "ED50": 0.16},
      {"molecule": "Fc1ccc(Cn2c(CC3CCN(CCSc4ccccc4)CC3)nc3ccccc32)cc1", "note": "[Compound 129]", "ED50": 0.16},
      {"molecule": "COc1ccc(Cn2c(CC3CCN(CCCn4c(=O)[nH]c5ccccc54)CC3)nc3ccccc32)cc1", "note": "[Compound 154]", "ED50": 0.08},
      {"molecule": "CN1CCC(Cc2nc3ccccc3n2Cc2ccco2)CC1", "note": "[Compound 86]", "ED50": 0.01},
      {"molecule": "O=c1[nH]c2ccccc2n1CCCN1CCC(Cc2nc3cccnc3n2Cc2cccs2)CC1", "note": "[Compound 215]", "ED50": 0.08},
      {"molecule": "COc1ccc(CCN2CCC(Cc3nc4ncccc4n3Cc3ccc(F)cc3)CC2)cc1", "note": "[Compound 203, 1-[(4-fluorophenyl)methyl]-2-[[1-[2-(4-methoxyphenyl)ethyl]-4-piperidinyl]methyl]-1H-imidazo-[4,5-b]pyridine]", "ED50": 0.04},
      {"molecule": "O=c1oc2ccccc2cc1CCN1CCC(Cc2nc3ccccc3n2Cc2cscn2)CC1", "note": "[Compound 265]", "ED50": 0.02},
      {"molecule": "c1ccc(Cn2c(CC3CCN(CCNc4nccs4)CC3)nc3ccccc32)cc1", "note": "[Compound 363]", "ED50": 0.04},
      {"molecule": "O=C(NCCN1CCC(Cc2nc3ccccc3n2Cc2ccc(F)cc2)CC1)c1cc2ccccc2oc1=O", "note": "[Compound 445, N-[2-[4-[[1-[(4-fluorophenyl)methyl]-1H-benzimidazol-2-yl]methyl]-1-piperidinyl]ethyl]-2-oxo-2H-1-benzopyran-3-carboxamide]", "ED50": 0.16},
      {"molecule": "CNCCN1CCC(Cc2nc3ccccc3n2Cc2ccc(F)cc2)CC1", "note": "[Compound 513, 4[[1-[(4-fluorophenyl)methyl]-1H-benzimidazol-2-yl]methyl]-N-methyl-1-piperidineethanamine]", "ED50": 0.08},
      {"molecule": "c1cnc(NCCN2CCC(Cc3nc4cccnc4n3Cc3ccco3)CC2)nc1", "note": "[Compound 339]", "ED50": 0.01},
      {"molecule": "Cn1c(=O)n(CCN2CCC(Cc3nc4ccccc4n3Cc3ccco3)CC2)c(=O)c2ccccc21", "note": "[Compound 221]", "ED50": 0.04},
      {"molecule": "Cc1nc2scc(C)n2c(=O)c1CCN1CCC(Cc2nc3ccccc3n2Cc2ccco2)CC1", "note": "[Compound 216]", "ED50": 0.04},
      {"molecule": "Fc1ccc(Cn2c(CC3CCN(Cc4ccccc4)CC3)nc3ncccc32)cc1", "note": "[Compound 23, 1-[(4-fluorophenyl)methyl]-2-[[1-(phenylmethyl)-4-piperidinyl]methyl]-1H-imidazo[4,5-b]pyridine]", "ED50": 0.08},
      {"molecule": "Fc1ccc(Cn2c(CC3CCN(CCNc4cnccn4)CC3)nc3ccncc32)cc1", "note": "[Compound 373, N-[2-[4-[[3-[(4-fluorophenyl)methyl]-3H-imidazo[4,5-c]pyridin-2-yl]methyl]-1-piperidinyl]ethyl]-2-pyrazinamine]", "ED50": 0.08},
      {"molecule": "O=c1[nH]c2ccccc2n1CCCN1CCC(Oc2nc3ccccc3n2Cc2ccc(F)cc2)CC1", "note": "[Compound 140, 1-[3-[4-[[1-[(4-fluorophenyl)methyl]-1H-benzimidazol-2-yl]oxy]-1-piperidinyl]propyl]-1,3-dihydro-2H-benzimidazol-2-one]", "ED50": 0.04},
      {"molecule": "Cc1nc2sccn2c(=O)c1CCN1CCC(Cc2nc3cccnc3n2Cc2ccco2)CC1", "note": "[Compound 173]", "ED50": 0.01},
      {"molecule": "Cc1ccc(Cn2c(CC3CCN(CCNc4nccs4)CC3)nc3ccccc32)cc1", "note": "[Compound 364]", "ED50": 0.04},
      {"molecule": "CCOC(=O)NCCN1CCC(Sc2nc3ccccc3n2Cc2ccc(F)cc2)CC1", "note": "[Compound 243, ethyl [2-[4-[[1-[(4-fluorophenyl)methyl]-1H-benzimidazol-2-yl]-thio]-1-piperidinyl)ethyl]carbamate]", "ED50": 0.04},
      {"molecule": "Fc1ccc(Cn2c(CC3CCN(CCNc4cccnn4)CC3)nc3ccccc32)cc1", "note": "[Compound 500, N-[2-[4-[[1-[(4-fluorophenyl)methyl]-1H-benzimidazol-2-yl]methyl]-1-piperidinyl]ethyl]-3-pyridazinamine]", "ED50": 0.01},
      {"molecule": "c1coc(Cn2c(CC3CCN(CCNc4nc5cnccc5[nH]4)CC3)nc3cccnc32)c1", "note": "[Compound 417, N-[2-[4-[[3-(2-furanylmethyl)-3H-imidazo[4,5-b]pyridin-2-yl]methyl]-1-piperidinyl]ethyl]-1H-imidazo[4,5-c]pyridin-2-amine]", "ED50": 0.04},
      {"molecule": "Cc1nc2n(c(=O)c1CCN1CCC(Cc3nc4ccccc4n3Cc3ccco3)CC1)CCCS2", "note": "[Compound 166]", "ED50": 0.04},
      {"molecule": "Fc1ccc(Cn2c(SC3CCN(CCOc4ncccn4)CC3)nc3ccccc32)cc1", "note": "[Compound 393, 1-[(4-fluorophenyl)methyl]-2-[[1-[2-(2-pyrimidinyloxy)ethyl]-4-piperidinyl]thio]-1H-benzimidazole]", "ED50": 0.08},
      {"molecule": "O=c1[nH]c2ccccc2c(=O)n1CCN1CCC(Cc2nc3cccnc3n2Cc2ccco2)CC1", "note": "[Compound 171]", "ED50": 0.08}
    ]}
  ]
}
